Structures are written as SMILES.

The test deals with T1, human ACC2 (Homo sapiens, UniProt O00763).
T1 construct: made in house; host or cells: insect cells, baculoviral expression system
T1 sequence (O00763 129-2458 limits assumed): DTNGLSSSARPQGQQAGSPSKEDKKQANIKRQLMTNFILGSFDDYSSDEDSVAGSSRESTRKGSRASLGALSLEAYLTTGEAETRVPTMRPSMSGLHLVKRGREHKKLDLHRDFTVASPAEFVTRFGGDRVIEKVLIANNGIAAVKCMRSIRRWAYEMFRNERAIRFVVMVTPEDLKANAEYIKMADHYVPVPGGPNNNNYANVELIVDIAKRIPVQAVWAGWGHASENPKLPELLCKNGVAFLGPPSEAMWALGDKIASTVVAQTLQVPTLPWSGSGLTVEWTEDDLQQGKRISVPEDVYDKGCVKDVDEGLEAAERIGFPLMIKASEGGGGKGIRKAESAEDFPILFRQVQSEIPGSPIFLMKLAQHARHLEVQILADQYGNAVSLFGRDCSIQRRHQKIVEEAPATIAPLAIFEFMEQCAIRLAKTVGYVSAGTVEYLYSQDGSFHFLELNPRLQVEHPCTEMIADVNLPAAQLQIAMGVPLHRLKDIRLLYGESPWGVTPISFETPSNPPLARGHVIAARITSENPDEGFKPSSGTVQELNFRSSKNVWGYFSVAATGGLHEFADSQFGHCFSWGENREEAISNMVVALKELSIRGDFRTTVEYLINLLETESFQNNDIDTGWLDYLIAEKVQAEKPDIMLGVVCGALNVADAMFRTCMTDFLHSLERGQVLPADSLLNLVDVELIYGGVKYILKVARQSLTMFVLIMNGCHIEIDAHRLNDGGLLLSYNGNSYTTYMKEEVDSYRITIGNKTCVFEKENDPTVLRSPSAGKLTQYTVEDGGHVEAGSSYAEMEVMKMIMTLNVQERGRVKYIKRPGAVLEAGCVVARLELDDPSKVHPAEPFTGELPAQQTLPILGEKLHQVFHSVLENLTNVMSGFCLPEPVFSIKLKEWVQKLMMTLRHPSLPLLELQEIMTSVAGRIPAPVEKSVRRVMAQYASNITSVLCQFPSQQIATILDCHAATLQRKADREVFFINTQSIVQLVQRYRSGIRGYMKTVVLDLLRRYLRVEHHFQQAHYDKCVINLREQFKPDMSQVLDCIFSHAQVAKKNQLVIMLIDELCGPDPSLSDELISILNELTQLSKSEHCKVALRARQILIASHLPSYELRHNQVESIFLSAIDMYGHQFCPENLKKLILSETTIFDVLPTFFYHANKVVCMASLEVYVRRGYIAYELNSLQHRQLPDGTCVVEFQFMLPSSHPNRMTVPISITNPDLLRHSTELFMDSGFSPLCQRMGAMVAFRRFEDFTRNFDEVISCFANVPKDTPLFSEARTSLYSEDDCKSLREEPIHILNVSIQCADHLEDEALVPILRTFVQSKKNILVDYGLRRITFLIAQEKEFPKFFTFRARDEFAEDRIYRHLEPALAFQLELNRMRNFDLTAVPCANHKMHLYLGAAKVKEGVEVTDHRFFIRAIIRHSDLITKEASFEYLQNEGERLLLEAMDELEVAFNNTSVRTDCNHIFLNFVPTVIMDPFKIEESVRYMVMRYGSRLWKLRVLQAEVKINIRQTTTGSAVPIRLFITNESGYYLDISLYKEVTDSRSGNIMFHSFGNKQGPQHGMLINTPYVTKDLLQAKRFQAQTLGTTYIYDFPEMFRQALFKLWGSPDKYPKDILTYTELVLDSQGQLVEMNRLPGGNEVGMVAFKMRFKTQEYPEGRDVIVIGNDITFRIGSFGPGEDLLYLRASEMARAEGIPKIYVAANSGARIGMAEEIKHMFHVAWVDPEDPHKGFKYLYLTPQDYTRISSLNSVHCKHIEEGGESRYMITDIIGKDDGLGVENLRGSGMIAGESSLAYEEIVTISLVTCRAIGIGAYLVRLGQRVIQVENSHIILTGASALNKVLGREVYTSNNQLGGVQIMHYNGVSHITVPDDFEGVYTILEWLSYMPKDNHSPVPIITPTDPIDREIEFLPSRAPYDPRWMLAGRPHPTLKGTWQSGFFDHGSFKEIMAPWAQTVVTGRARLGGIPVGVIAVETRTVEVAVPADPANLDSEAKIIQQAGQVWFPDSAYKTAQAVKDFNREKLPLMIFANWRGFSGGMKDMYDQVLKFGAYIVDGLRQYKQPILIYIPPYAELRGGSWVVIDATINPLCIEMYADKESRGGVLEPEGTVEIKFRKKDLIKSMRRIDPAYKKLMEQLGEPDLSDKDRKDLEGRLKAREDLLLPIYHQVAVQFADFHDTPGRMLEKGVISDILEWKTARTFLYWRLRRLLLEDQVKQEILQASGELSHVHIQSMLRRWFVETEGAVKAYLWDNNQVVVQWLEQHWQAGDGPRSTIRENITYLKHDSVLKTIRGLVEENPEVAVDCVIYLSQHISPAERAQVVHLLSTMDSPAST
Nature of the test: ACC2 assay, spectrophotometric 384 well assay (NADH-linked, coupled lactate dehydrogenase/pyruvate kinase). Type of test: biochemical. Conditions: hACC2 construct lacking the 128 N-terminal amino acids; 25° C., 340 nm, 15 minutes. The procedure:
Spectrophotometric 384 Well Assay
Malonyl CoA formation by acetyl CoA carboxylases is stoichometrically linked to the consumption of ATP. ACC2 activity is measured in a NADH-linked kinetic method measuring ADP generated during the ACC reaction using a coupled lactate dehydrogenase/pyruvate kinase reaction.
For biological testing, a human ACC2 construct which lacks the 128 amino acids at the N-terminus for increased solubility (nt 385-6966 in Genbank entry AJ575592) is cloned. The protein is then expressed in insect cells using a baculoviral expression system. Protein purification is performed by anion exchange.
All compounds are dissolved in dimethyl sulfoxide (DMSO) to a concentration of 10 mM.
Assay reactions are then carried out in 384-well plates, with hACC2 in an appropriate dilution and at final assay concentrations (f.c.) of 100 mM Tris (pH 7.5), 10 mM trisodium citrate, 25 mM KHCO3, 10 mM MgCl2, 0.5 mg/mL BSA, 3.75 mM reduced L-glutathione, 15 U/mL lactate dehydrogenase, 0.5 mM phosphoenolpyruvate, 15 U/mL pyruvate kinase, compounds at different concentrations at final DMSO concentrations of 1%.
The enzymatic reaction is then started by addition of a mixture of NADH, acetyl Coenzyme A (both 200 μM f.c.) and ATP (500 uM f.c.). The decrease of the optical density (slope S) is then determined at 25° C. at a wavelength of 340 nm over 15 minutes in a spectrophotometric reader.
Each assay microtiter plate contains wells with vehicle instead of compound as controls for the non-inhibited enzyme (100% CTL; ‘HIGH’) and wells without acetyl-CoA as controls for non-specific NADH degradation (0% CTL; ‘LOW’). The slope S is used for calculation of % CTL=(S(compound)−S(‘LOW’))/(S(‘HIGH’)—S(‘LOW’))*100. Compounds will give values between 100% CTL (no inhibition) and 0% CTL (complete inhibition).
For IC50 value determination, the sample slope in the presence of the test compound after subtraction of the low controls (S(compound)−S(‘LOW’)) are used.
An IC50 value is derived from the compound slopes at different dosages after subtraction of the low controls (S(compound)−S(‘LOW’)) by non-linear regression curve fitting (equation y=(A+((B−A)/(1+((C/x)^D))))).
Usually IC50 stands for the concentration at which inhibition is half-maximal. As to `CCNC(=O)C(C)c1ccc(C#Cc2cnc(NCc3ccccc3)nc2)cc1` (stereo not shown) [Example 2.13], the half-maximal inhibitory concentration (IC50) worked out at 240 nM. As to `CCNC(=O)C(C)c1ccc(C#Cc2cnc(N(C)C3CC3)nc2)cc1` (stereo not shown) [Example 2.14], half-maximal inhibition (IC50) was put at 6800 nM. The value for `CCNC(=O)C(C)c1ccc(C#Cc2cnc(N3CCCCC3)nc2)cc1` (stereo not shown) [Example 2.15] was 1500 nM; that for `CCNC(=O)C(C)c1ccc(C#Cc2cnc(NCc3ccncc3)nc2)cc1` (stereo not shown) [Example 2.16] was 7400 nM; that for `CCNC(=O)C(C)c1ccc(C#Cc2cnc(OCCF)nc2)cc1` (stereo not shown) [Example 3.1, N-Ethyl-2-{4-[2-(2-fluoro-ethoxy)-pyrimidin-5-ylethynyl]-phenyl}-propionamide] was 8400 nM.

`CCNC(=O)C(C)c1ccc(C#Cc2cnc(OC3CCC3)nc2)cc1` (stereo not shown) [Example 3.2] displayed an IC50 of 400 nM. The value for `CCNC(=O)C(C)c1ccc(C#Cc2cnc(Oc3ccccc3)nc2)cc1` (stereo not shown) [Example 3.3] was 920 nM. The value for `CCNC(=O)C(C)c1ccc(C#Cc2cnc(OC(C)C)nc2)cc1` (stereo not shown) [Example 3.4] was 460 nM. The value for `CCNC(=O)C(C)c1ccc(C#Cc2ccc(OC)cc2)cc1` (stereo not shown) [Example 4.1, N-Ethyl-2-[4-(4-methoxy-phenylethynyl)-phenyl]-propionamide] was 260 nM.

`CCNC(=O)C(C)c1ccc(C#Cc2ccc(OCc3ccco3)cc2)cc1` (stereo not shown) [Example 5.1, N-Ethyl-2-{4-[4-(furan-2-ylmethoxy)-phenylethynyl]-phenyl}-propionamide]: the concentration for half-maximal inhibition (IC50) was 1500 nM. To `CCNC(=O)C(C)c1ccc(C#Cc2ccc(OC3CCOCC3)cc2)cc1` (stereo not shown) [Example 5.2] belongs 1800 nM; to `CCNC(=O)C(C)c1ccc(C#Cc2ccc(OCC(C)C)cc2)cc1` (stereo not shown) [Example 5.3], 240 nM; to `CCNC(=O)C(C)c1ccc(C#Cc2ccc(OCCOCC)cc2)cc1` (stereo not shown) [Example 5.4], 1100 nM. The value for `CCNC(=O)C(C)c1ccc(C#Cc2ccc(OCCC3CC3)cc2)cc1` (stereo not shown) [Example 5.5] was 200 nM; that for `CCNC(=O)C(C)c1ccc(C#Cc2ccc(OCC3CCOC3)cc2)cc1` (stereo not shown) [Example 5.6] was 230 nM; that for `CCNC(=O)C(C)c1ccc(C#Cc2ccc(OCCn3cccc3)cc2)cc1` (stereo not shown) [Example 5.7] was 170 nM. To `CCNC(=O)C(C)c1ccc(C#Cc2ccc(OC(C)c3ccncc3)cc2)cc1` (stereo not shown) [Example 5.8] belongs 1500 nM. In turn, `CCNC(=O)C(C)c1ccc(C#Cc2ccc(OCc3cncs3)cc2)cc1` (stereo not shown) [Example 5.10] showed an IC50 of 3700 nM. Against the preceding compound, the IC50 is about 2.5-fold higher.

For `CCNC(=O)C(C)c1ccc(C#Cc2ccc(OC3CCCOC3)cc2)cc1` (stereo not shown) [Example 5.11], the midpoint of inhibition, the IC50, lay at 870 nM. `CCNC(=O)C(C)c1ccc(C#Cc2ccc(OCCCOC)cc2)cc1` (stereo not shown) [Example 5.12]: the IC50 turned out to be 440 nM. To `CCNC(=O)C(C)c1ccc(C#Cc2ccc(OCC3CCOCC3)cc2)cc1` (stereo not shown) [Example 5.13] belongs 890 nM; to `CCNC(=O)C(C)c1ccc(C#Cc2ccc(OCCC(F)(F)F)cc2)cc1` (stereo not shown) [Example 5.14], 110 nM; to `CCNC(=O)C(C)c1ccc(C#Cc2ccc(OCC3(C)COC3)cc2)cc1` (stereo not shown) [Example 5.15], 2700 nM. The value for `CCNC(=O)C(C)c1ccc(C#Cc2ccc(OC(CC)COC)cc2)cc1` (stereo not shown) [Example 5.16] was 1400 nM; that for `CCNC(=O)C(C)c1ccc(C#Cc2ccc(OCCc3cn[nH]c3)cc2)cc1` (stereo not shown) [Example 5.17] was 930 nM. To `CCNC(=O)C(C)c1ccc(C#Cc2ccc(OCCn3ccnc3)cc2)cc1` (stereo not shown) [Example 5.18] belongs 1900 nM. For `CCNC(=O)C(C)c1ccc(C#Cc2ccc(OCC(C)F)cc2)cc1` (stereo not shown) [Example 5.19], the IC50 turned out to be 250 nM. This IC50 is about 7.6-fold lower than that of the compound before. The value for `CCNC(=O)C(C)c1ccc(C#Cc2ccc(OCC3CC3(F)F)cc2)cc1` (stereo not shown) [Example 5.20] was 90 nM; that for `CCNC(=O)C(C)c1ccc(C#Cc2ccc(OCc3cnco3)cc2)cc1` (stereo not shown) [Example 5.21] was 540 nM; that for `CCOc1ccc(C#Cc2ccc(C(C)C(=O)Nc3cc(C)nn3C)cc2)cc1` (stereo not shown) [Example 6.1, N-(2,5-Dimethyl-2H-pyrazol-3-yl)-2-[4-(4-ethoxy-phenylethynyl)-phenyl]-propionamide] was 230 nM.

As for `CCOc1ccc(C#Cc2ccc(C(C)C(=O)Nc3ccncn3)cc2)cc1` (stereo not shown) [Example 6.2], the IC50 turned out to be 520 nM. To `CCOc1ccc(C#Cc2ccc(C(C)C(=O)Nc3nnc(C)o3)cc2)cc1` (stereo not shown) [Example 6.3] belongs 830 nM; to `CCOc1ccc(C#Cc2ccc(C(C)C(=O)Nc3cccc(OC)n3)cc2)cc1` (stereo not shown) [Example 6.4], 410 nM; to `CCOc1ccc(C#Cc2ccc(C(C)C(=O)Nc3cncnc3)cc2)cc1` (stereo not shown) [Example 6.5], 60 nM. The value for `CCOc1ccc(C#Cc2ccc(C(C)C(=O)Nc3ccn[nH]3)cc2)cc1` (stereo not shown) [Example 6.6] was 3600 nM; that for `CCOc1ccc(C#Cc2ccc(C(C)C(=O)Nc3ncco3)cc2)cc1` (stereo not shown) [Example 6.7] was 3300 nM; that for `CCOc1ccc(C#Cc2ccc(C(C)C(=O)NC3COC3)cc2)cc1` (stereo not shown) [Example 6.8] was 620 nM. The value for `CCOc1ccc(C#Cc2ccc(C(C)C(=O)NC3CCOC3)cc2)cc1` (stereo not shown) [Example 6.9] was 1800 nM. The compound `CCOc1ccc(C#Cc2ccc(C(C)C(=O)Nc3ccnn3C)cc2)cc1` (stereo not shown) [Example 6.10] returned an IC50 of 190 nM.

The compound `CCOc1ccc(C#Cc2ccc(C(C)C(=O)Nc3ccnn3CC)cc2)cc1` (stereo not shown) [Example 6.11] returned an IC50 of 840 nM.

In turn, `CCOc1ccc(C#Cc2ccc(C(C)C(=O)Nc3ccnnc3)cc2)cc1` (stereo not shown) [Example 6.12] registered an IC50 of 130 nM. The value for `CCOc1ccc(C#Cc2ccc(C(C)C(=O)Nc3ccncc3)cc2)cc1` (stereo not shown) [Example 6.13] was 400 nM; that for `CCOc1ccc(C#Cc2ccc(C(C)C(=O)Nc3cccnc3)cc2)cc1` (stereo not shown) [Example 6.14] was 240 nM; that for `CCOc1ccc(C#Cc2ccc(C(C)C(=O)Nc3ncccn3)cc2)cc1` (stereo not shown) [Example 6.15] was 290 nM. The value for `CCOc1ccc(C#Cc2ccc(C(C)C(=O)Nc3cc(C)on3)cc2)cc1` (stereo not shown) [Example 6.16] was 100 nM; that for `CCOc1ccc(C#Cc2ccc(C(C)C(=O)NC3CCOCC3)cc2)cc1` (stereo not shown) [Example 6.17] was 18700 nM; that for `CCOc1ccc(C#Cc2ccc(C(C)C(=O)NCc3ccno3)cc2)cc1` (stereo not shown) [Example 6.18] was 18700 nM.

As for `CCOc1ccc(C#Cc2ccc(C(C)C(=O)NCc3ncn[nH]3)cc2)cc1` (stereo not shown) [Example 6.19], the IC50 came out at 4500 nM. This IC50 is about 4.2-fold lower than that of the compound before.

Turning to `CCOc1ccc(C#Cc2ccc(C(C)C(=O)Nc3ccn[nH]3)cc2)cc1` (stereo not shown) [Example 6.20], the IC50 came to 8300 nM.

`CCOc1ccc(C#Cc2ccc(C(C)C(=O)Nc3cc(C)[nH]n3)cc2)cc1` (stereo not shown) [Example 6.21] registered an IC50 of 25500 nM. In the case of `CCOc1ccc(C#Cc2ccc(C(C)C(=O)NCc3ccn(C)n3)cc2)cc1` (stereo not shown) [Example 6.22], 1500 nM corresponded to half-maximal inhibition (IC50).

Take `CCOc1ccc(C#Cc2ccc(C(C)C(=O)Nc3nncs3)cc2)cc1` (stereo not shown) [Example 6.23]: the IC50 is 23100 nM. This IC50 is about 15-fold higher than that of the compound before.

`CCOc1ccc(C#Cc2ccc(C(C)C(=O)NCc3cnco3)cc2)cc1` (stereo not shown) [Example 6.24] displayed a concentration for half-maximal inhibition (IC50) of 1800 nM. To `CCOc1ccc(C#Cc2ccc(C(C)C(=O)NCC3CCOC3)cc2)cc1` (stereo not shown) [Example 6.25] belongs 12800 nM; to `CCOc1ccc(C#Cc2ccc(C(C)C(=O)NC(C)(C)C#N)cc2)cc1` (stereo not shown) [Example 6.26], 18700 nM.

For `CCNC(=O)C(C)c1ccc(C#Cc2ccc(C(C)C)cc2)cc1` (stereo not shown) [Example 7.1, N-Ethyl-2-[4-(4-isopropyl-phenylethynyl)-phenyl]-propionamide], the IC50 was determined as 1300 nM. To `CCNC(=O)C(C)c1ccc(C#Cc2ccc(OC3CCC3)cc2)cc1` (stereo not shown) [Example 7.3] belongs 110 nM. To `CCNC(=O)C(C)c1ccc(C#Cc2ccc(OCC3CC3)cc2)cc1` (stereo not shown) [Example 7.4] belongs 150 nM; to `CCNC(=O)C(C)c1ccc(C#Cc2cnc(OC)nc2OC)cc1` (stereo not shown) [Example 7.5], 4400 nM.

`CCNC(=O)C(C)c1ccc(C#Cc2ccc(OC(F)F)cc2)cc1` (stereo not shown) [Example 7.6] gave a 50% inhibitory concentration (IC50) of 4300 nM. The value for `CCNC(=O)C(C)c1ccc(C#Cc2ccc(SC)cc2)cc1` (stereo not shown) [Example 7.7] was 250 nM; that for `CCNC(=O)C(C)c1ccc(C#Cc2ccc3cccnc3c2)cc1` (stereo not shown) [Example 7.8] was 2500 nM. `CCNC(=O)C(C)c1ccc(C#Cc2ccnc(OCC)c2)cc1` (stereo not shown) [Example 7.9] returned an IC50 of 250 nM.

In turn, `CCCOc1cc(C#Cc2ccc(C(C)C(=O)NCC)cc2)ccn1` (stereo not shown) [Example 7.10] returned a half-maximal inhibitory concentration (IC50) of 270 nM. This IC50 and that of the compound before are within 1.5-fold of each other.

The values are drawn from US8877754B2, “Compounds, pharmaceutical compositions and uses thereof” (Boehringer Ingelheim International GmbH, priority 2010, dated 2014).
